Results taken from patent US10538545B2 (priority 2017, dated 2020).

Tests used:
[1] = system: AB (wild type) zebrafish embryos; details: in vivo
metmyoglobin (metMb) = target: T1, metmyoglobin (metMb) (Equus caballus, UniProt P68082); test: Reaction of DNIC with metmyoglobin (nitroxyl transfer, UV-vis); assay type: biochemical; details: 10 μM DNIC + 10 μM metMb, 25 mM phosphate buffer pH 7.4
T1 construct: purchased TCl
Protocol: A typical procedure for nitroxyl-transfer reaction of DNIC-2 and metmyoglobin was described below using DNIC-2a as an example, whereas reaction of DNIC-2b/DNIC-2d and metMb follows the same procedure. 10 μM of metMb in 3.3 mL of 25 mM phosphate buffer (pH 7.4) was loaded in a 4-mL quartz cuvette and sealed with rubber septum under anaerobic N2 atmosphere. 10 μM of DNIC-2a (13.0 μL of 2.5 mM stock solution of DNIC-2a in THF) was added into this aqueous solution, which is thermostated at 25° C. UV-vis spectra of this reaction solution were measured after this reaction solution was incubated for 10 minutes.
A typical procedure for reaction of DNIC-1 and metmyoglobin was described below. To a 4-mL quartz cuvette containing 10 μM of metMb in 3.3 mL of 25 mM phosphate buffer (pH 7.4), 10 μM of DNIC-1, derived from 13.0 μL of 2.5 mM stock solution of DNIC-1 in THF was added via gas-tight syringe at room temperature. The reaction solution was incubated at ambient temperature for 8 hours. No change of UV-vis spectra for this reaction solution was observed.
In example 1, the reaction of a variety of DNICs with metmyoglobin was investigated so as to verify the universal role of bridging ligands, thiolate vs. pyrazolate, on dictating the NO^−-transfer reactivity.

[2] = system: soluble guanylate cyclase (sGC); parameters: species or system C. elegans; details: in vivo
[3] = system: Tg (kdr:EGFP) zebrafish embryos; details: in vivo
WT-AB zebrafish embryos = details: in vivo

T1 sequence (P68082 2-154 limits assumed): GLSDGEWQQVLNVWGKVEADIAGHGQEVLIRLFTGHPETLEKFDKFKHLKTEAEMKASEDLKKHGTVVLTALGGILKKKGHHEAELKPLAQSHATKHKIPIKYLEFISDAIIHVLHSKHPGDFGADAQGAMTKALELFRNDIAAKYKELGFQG

| Molecule | Cardiac Output [1] [nL/min] | Fractional Shortening [1] | Heart Rate [1] [bpm] | Short Axis Diameter ED(Dd) [1] [μm] | Short Axis Diameter ES(Ds) [1] [μm] | Ventricular Volume ED [1] [nL] | Ventricular Volume ED-ES [1] [nL] | Ventricular Volume ES [1] [nL] | nitroxyl-transfer reactivity toward metmyoglobin (formation of MbNO, shift of UV-vis bands) (metmyoglobin (metMb)) | increase of the GFP fluorescence signal in CX3553 worms [2] | Vessel Diameter (dorsal aorta diameter) [3] [μm] | change of diameter of heart short-axis at end systole (ES) [1] | enhancement of cardiac output [1] | enhancement of fractional shortening [1] | Survival rate of zebrafish, Day 3 (WT-AB zebrafish embryos) [%] | Survival rate of zebrafish, Day 4 (WT-AB zebrafish embryos) [%] | Survival rate of zebrafish, Day 5 (WT-AB zebrafish embryos) [%] | acute toxicity on zebrafish embryo (WT-AB zebrafish embryos) |
| --- | --- | --- | --- | --- | --- | --- | --- | --- | --- | --- | --- | --- | --- | --- | --- | --- | --- | --- |
| CNC[C@H](O)c1ccc(O)c(O)c1 [Epinephrine, epinephrine, reference compound] | 37.4 ± 6.1 | 0.25 ± 0.04 | 144 ± 8 | 80.9 ± 1.4 | 61.0 ± 2.5 | 0.46 ± 0.05 | 0.26 ± 0.05 | 0.20 ± 0.03 |  |  |  |  |  |  |  |  |  |  |
| [(NO)2Fe(μ-^NH2Pyr)2Fe(NO)2] [DNIC-2a] | 48.4 ± 4.5 | 0.28 ± 0.02 | 145 ± 7 | 83.3 ± 2.5 | 59.6 ± 1.7 | 0.55 ± 0.03 | 0.34 ± 0.02 | 0.21 ± 0.02 | nitroxyl transfer from DNIC-2a to metmyoglobin | about 5.7 fold | 25.6±0.6 | significant decrease | about 2 fold | about 2 fold | 100 ± 0.0 | 99.6 ± 0.7 | 98.4 ± 2.7 | no acute toxicity |
